One series relates to Mouse ES cells. The series can be described thus: Mouse ES cell self-renewal culture. Format: cell-based. To be noted: for ES cell propagation: single inhibitor in N2B27 medium containing LIF without BMP4; for Oct4/Sox1 marker status: single inhibitor in N2B27 medium without added LIF; for toxicity to ES cells: GSK-3 inhibitor alone in ES cell culture. The protocol:
Mouse ES cells were cultured in the presence of an inhibitor of the FGF receptor and a MEK inhibitor. […] Undifferentiated cultures can be continuously passaged in these conditions while retaining expression of the pluripotency markers Oct4, Nanog, and Rex1.
However, these cells invariably differentiate and/or die after passaging. To reduce potential toxic side effects we used 2.5 fold lower doses and combined the two inhibitors together. […] Viability is lower and population doubling time slower in this two inhibitor (2i) condition than in the presence of ILIF, but differentiation is effectively restrained.
We reasoned that reduced growth of ES cells in 2i media could be due to increased activity of glycogen synthase kinase 3 (GSK-3) consequent to release of inhibitory phosphorylation by Rsk downstream of pErk. […] In serum-free N2B27 medium the differentiation response is reduced and some colonies appear morphologically Undifferentiated for several days.
However, when CHIR99021 is combined with 2i the differentiation response is lost entirely. Furthermore, CHIR99021 modulated the response to 2i such that ES cells grew as compact three dimensional colonies rather than flattened monolayers typically seen in LIF plus serum/BMP or in 2i. Differentiation was negligible in the three inhibitors (3i) and ES cells propagated rapidly. Most importantly undifferentiated colonies grew up at high efficiency after passaging (data not shown).

Series [1] has as its system cyclin-dependent kinases (CDKs). To be noted: at concentrations that completely block GSK-3 activity; cited from earlier work.
The test system of the next series is FGF receptor. In words: Substitution of FGFR antagonist in culture medium. In kind it is cell-based. Conditions: substituting for SU5402.
Series [2] relates to RH ES cells fused to Neural Stem cells (NS TGFP). The series can be described thus: ES-NS cell fusion, pluripotent hybrid colony formation (reprogramming). Format: cell-based. The protocol: (FIGS. 1A-1C)—FACS analysis for red and green fluorescence of RH×NS TGFP fusions. (FIG. 1A) Fusion mixture 24 hours after PEG treatment; (FIG. 1B) Purity check of FACS sorted hybrids gated in A. (FIG. 1C) Hybrids sorted in A were plated and the formed colonies were scored as percentage of colonies per plated hybrid. These scores take into account the purity of the FACS sorted cells. (FIG. 1D) Summary of data. (FIG. 1E) Examples of hybrid colony morphology.
RH ES cells, which express constitutively the dsRed fluorescent protein and hygromycin resistance, were fused to foetal derived Neural Stem cells (NS TGFP) that express the fusion protein TauGFP linked via an IRES to puromycin resistance. […] In the control no PD184352 was added. Treated and untreated primary hybrids were sorted 24 hours after fusion and then plated (FIG. 1A-C). Hygromycin and puromycin selection were added to the ES medium 3 days later. […] This effect is likely to be mediated by the increased levels of Nanog in treated RH cells. Accordingly, if Nanog is endogenously expressed then the MEK inhibitor can be used to upregulate Nanog and achieve associated effects, such as increased reprogramming.

The next series has as its system Nanog. In words: Nanog levels and Nanog dependence of self-renewal in ES cells. To be noted: data not shown. In kind it is cell-based. The source says:
In fact, these cells differentiated.

A further series deals with Human ES cells. The series can be described thus: Human ES cell culture. Format: cell-based. Conditions: media supplemented with CHIR99021 and PD184352; data not shown.

Description for FGF receptor: Suitable concentrations of SU5402 are in the micromolar range, such as from 0.1-20 μM. Some embodiments use concentrations in the range 0.5-10 μM, especially in the range 1-5 μM.

Consider `Cc1c[nH]c(-c2cnc(NCCNc3ccc(C#N)cn3)nc2-c2ccc(Cl)cc2Cl)n1` [CHIR99021], for which the differentiation response result in the series with Mouse ES cells (3 μM, in the presence of serum, even with LIF) is “promotes differentiation”. In addition, the “persistence of undifferentiated cells after passaging” value with Mouse ES cells (serum-free N2B27 medium, GSK-3 inhibitor alone) is on record as “Undifferentiated cells do not persist after passaging”. The “cross reaction with CDKs” value in series [1] is “does not cross react”.

`CCN(CC)CCCCNc1ncc2cc(-c3cc(OC)cc(OC)c3)c(NC(=O)NC(C)(C)C)nc2n1` [PD173074]: the “fully effective concentration relative to SU5402 (fold lower)” value in the series with FGF receptor is reported as “about 100 fold”.

In the case of `O=C(NOCC1CC1)c1ccc(F)c(F)c1Nc1ccc(I)cc1Cl` [PD184352], the “percentage of hybrid colonies formed per plated hybrid” value in series [2] (PD184352 treated RH cells (3 μM)) was determined as 2.25%. The “enhancement of ES-NS hybrid colony formation” value in series [2] (RH cells treated 3 days prior and after fusion with 3 μM PD184352, vs untreated control) was found to be 45 fold. Further, the “ES cell self-renewal in Nanog −/− ES cells” value with Nanog (Nanog −/− ES cells) was “failed to show enhancing of ES cell self-renewal”. Besides, the “levels of Nanog in ES cells” value in the series on Nanog is on record as “increases the levels of Nanog”. Besides, in the series with Mouse ES cells, the ES cell propagation result is on record as “sufficient for robust ES cell propagation”; the Oct4/Sox1 marker status entry is “remain Oct4 positive and Sox1 negative for several days”.

Regarding `Cn1cc(C2=C(c3ccc(Cl)cc3Cl)C(=O)NC2=O)c2ccccc21` [SB216763], in the series on Mouse ES cells, the “toxicity to ES cells” value is listed as “somewhat toxic”.

Take `O=C1NC(=O)C(c2ccccc2[N+](=O)[O-])=C1Nc1ccc(O)c(Cl)c1` [SB415286]: the “toxicity to ES cells” value with Mouse ES cells was “somewhat toxic”.

As for `Cc1c[nH]c(/C=C2\C(=O)Nc3ccccc32)c1CCC(=O)O` [SU5402], in the series on Mouse ES cells, the ES cell propagation result is “sufficient for robust ES cell propagation”; the Oct4/Sox1 marker status result was “remain Oct4 positive and Sox1 negative for several days”.

As to “LIF: Leukaemia Inhibitory Factor, gp130 receptor binding cytokine”, the “propagation of cells on addition of LIF” value in the series with Mouse ES cells (media supplemented with CHIR99021 and PD184352, data not shown) is listed as “further improved propagation”; in the series on Human ES cells, “further improved propagation”.

The values above are taken from patent publication US9074180B2, “Culture medium containing kinase inhibitors, and uses thereof” (THE UNIVERSITY COURT OF THE UNIVERSITY OF EDINBURGH, priority 2006, dated 2015).
